The record followed here is patent US6403573B1, “Compounds of azetidine and pyrrolidin” (Akzo Nobel N.V., priority 2000, dated 2002).

One data set addresses T1, 5HT2C receptors (Rattus norvegicus, UniProt P08909).
T1 construct: from tissue; host or cells: living rats (in vivo)
T1 sequence (P08909 33-460): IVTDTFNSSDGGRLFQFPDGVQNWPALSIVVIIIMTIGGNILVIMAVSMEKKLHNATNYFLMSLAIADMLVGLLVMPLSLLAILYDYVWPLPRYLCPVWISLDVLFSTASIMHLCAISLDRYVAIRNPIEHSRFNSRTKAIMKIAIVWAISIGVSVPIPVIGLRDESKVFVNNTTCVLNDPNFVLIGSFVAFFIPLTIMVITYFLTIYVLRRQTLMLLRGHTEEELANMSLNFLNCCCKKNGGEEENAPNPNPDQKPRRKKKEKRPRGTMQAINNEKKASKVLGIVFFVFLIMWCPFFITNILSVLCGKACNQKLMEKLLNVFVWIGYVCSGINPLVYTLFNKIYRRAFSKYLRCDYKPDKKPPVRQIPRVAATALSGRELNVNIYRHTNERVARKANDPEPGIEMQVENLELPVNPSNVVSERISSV
The data set can be described thus: Penile erection test. The data set is classed as in vivo, rats. The text has this: This test, carried out according to the protocol of Berendsen et al [“Involvement of 5-HT1C receptors in drug-induced penile erections in rats”—Psychopharmacology 101: 57-61(1990)] enables the potential in vivo activity at 5HT2C receptors to be assessed.

Another data set is described as follows: DRL-72 test. The data set is classed as in vivo, rats. The source says:
This test, carried out according to the protocol of Andrews et al [“Effects of imipramine and mirtazapine on operant performance in rats”—Drug Development Research 32: 58-66 (1994)], gives an indication of potential antidepressant-like activity.

The next data set addresses T2, 5-HT2C receptors (Homo sapiens, UniProt P28335).
T2 construct: expressed in transfected cells; host or cells: 3T3 cells
T2 sequence (P28335 33-458): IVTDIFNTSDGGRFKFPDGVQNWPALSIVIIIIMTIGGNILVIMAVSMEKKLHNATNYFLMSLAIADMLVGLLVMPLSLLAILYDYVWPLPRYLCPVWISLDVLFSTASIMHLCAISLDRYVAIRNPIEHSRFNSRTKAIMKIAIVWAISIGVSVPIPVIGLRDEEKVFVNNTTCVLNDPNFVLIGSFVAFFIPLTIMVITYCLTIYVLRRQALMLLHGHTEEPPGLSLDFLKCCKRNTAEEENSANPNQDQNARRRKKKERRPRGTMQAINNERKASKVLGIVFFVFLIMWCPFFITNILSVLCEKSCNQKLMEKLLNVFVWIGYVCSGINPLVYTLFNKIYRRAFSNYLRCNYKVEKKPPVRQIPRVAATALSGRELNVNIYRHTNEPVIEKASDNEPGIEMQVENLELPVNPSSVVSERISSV
Put plainly: Binding test, displacement of [3H]-mesulergine, cloned human receptors expressed in 3T3 cells. As to the method: The tests are carried out using cloned human receptors expressed in 3T3 cells according to the protocols described in Stam et at “Genomic organization, coding sequence and functional expression of human 5-HT2 and 5-HT1A receptor genes”—European Journal of Pharmacology—Molecular Pharmacology Section 227: 153-162 (1993) and Stam et al “Genomic organisation and functional expression of the gene encoding the human serotonin 5-HT2C receptor”—European Journal of Pharmacology—Molecular Pharmacology Section 269: 339-348 (1994).

As for `COc1ccc2c(c1O[C@@H]1CCNC1)CCC2.Cl`, the melting point – broadly, the temperature, or range, at which the solid turns liquid – was determined as 174 °C. Same read-out and setting: to `Cl.c1cc2c(c(OC3CNC3)c1)CCC2` belongs 65 °C.

The compound `Cc1ccc2ccccc2c1OC1CNC1.Cl` displayed a melting point of 171 °C. The compound `Cl.c1ccc2c(OC3CNC3)cccc2c1` had a melting point of 292 °C. `COc1ccc(OC2CNC2)c2ccccc12.Cl` yielded a melting point of 198 °C.

`Cl.c1cc2c(c(OC3CNC3)c1)CCCC2` came in with a melting point of 187 °C. On the same count and under the same terms, to `COc1ccc2c(c1OC1CNC1)CCCC2.Cl` belongs 164 °C; to `Cl.c1ccc2cc(OC3CNC3)ccc2c1`, 168 °C; to `Cl.c1cc2c(c(OC3CNC3)c1)NCCC2`, > 250 °C. The same measure, in the same setting: for `Cl.Clc1ccc2c(c1OC1CNC1)CCC2` the value was 188 °C; for `Cl.Clc1cc(Cl)c2ccccc2c1OC1CNC1`, 187 °C; for `Cc1ccc(OC2CNC2)c2ccccc12.Cl`, 180 °C. With `CC1CCc2c(OC3CNC3)cc(F)cc21.Cl` (centres unmarked), the melting point was 170 °C.

Compound `Cl.c1cc(OC2CNC2)c2ccsc2c1` gave a melting point of 203 °C. Same read-out and setting: to `Cl.Cl.c1cc(OC2CNC2)c2ccncc2c1` belongs 198 °C. Still for that read-out and setting: to `Cl.c1ccc2c(SC3CNC3)cccc2c1` belongs 159 °C; to `COCc1ccc2ccccc2c1OC1CNC1.Cl`, 127 °C. Consider `COc1ccc2c(c1OC1CCNC1)CCC2.Cl` (racemic) [Compound 10b, (rac)-3-[(2,3-Dihydro-5-methoxy-1H-inden-4-yl)oxy] pyrrolidine hydrochloride], for which the melting point was found to be 154 °C. Also, on 5HT2C receptors, the “Erection of the penis (MED)” value is 1 mg/kg. Further, the “Increase in pellets earned in DRL-72 (MED)” value in “DRL-72 test” turned out to be 10 mg/kg. For the compound `Cl.c1ccc2c(OC3CCNC3)cccc2c1` (racemic) [Compound 10c, (rac)-3-[(1-Naphtalenyl)oxy]pyrrolidine hydrochloride], the “selective effect on 5-HT2C receptors in the central nervous system” value at 5-HT2C receptors is recorded as “selective effect on 5-HT2C receptors”. Take `COc1ccc2c(c1OC1CNC1)CCC2.Cl` [Compound 5d, 3-[(2,3-Dihydro-5-methoxy-1H-inden-4-yl)oxy]-azetidine hydrochloride]: the melting point came to 166 °C. For the same compound, the “Erection of the penis (MED)” value on 5HT2C receptors was found to be 1 mg/kg. In addition, the “Increase in pellets earned in DRL-72 (MED)” value in “DRL-72 test” turned out to be 10 mg/kg. The matching figures for `COc1ccc2c(c1O[C@H]1CCNC1)CCC2.Cl` [Compound 9a, (S)-(+)-3-[(2,3-Dihydro-5-methoxy-1H-inden-4-yl)oxy]-pyrrolidine Hydrochloride]: 176 °C, 0.46 mg/kg and 3 mg/kg. Compound `Cl.c1cc2c(c(OC3CCNC3)c1)CCCC2` (centres unmarked) [Compound 9b, 3-[(5,6,7,8-Tetrahydro-1-naphthalenyl)oxy]-pyrrolidine hydrochloride] gave a melting point of 207 °C. Besides, the “selective effect on 5-HT2C receptors in the central nervous system” value on 5-HT2C receptors is “selective effect on 5-HT2C receptors”.
